What is called IC50 is the concentration at which inhibition is half-maximal.

We go through 18 compounds from ChEMBL document CHEMBL4219273, “Discovery of a novel olefin derivative as a highly potent and selective acetyl-CoA carboxylase 2 inhibitor with in vivo efficacy” (Bioorg Med Chem Lett, 2018).

The target of data set [1] is Cytochrome P450 3A4 (Homo sapiens, UniProt P08684). The data set can be described thus: Inhibition of CYP3A4 (unknown origin). It is filed as ADME.
Data set [2] is filed under the species Homo sapiens. Description: Selectivity ratio of IC50 for recombinant human ACC1 to IC50 for recombinant human ACC2.
In data set [3] the target is Acetyl-CoA carboxylase 2 (Homo sapiens, UniProt O00763). The data set can be described thus: Inhibition of recombinant human ACC2 assessed as reduction in conversion of acetyl-CoA to malonyl-CoA incubated for 1 to 3 hrs with substrate by MALDI-TOF-MS analysis.
Chain of Acetyl-CoA carboxylase 2 (O00763 whole entry): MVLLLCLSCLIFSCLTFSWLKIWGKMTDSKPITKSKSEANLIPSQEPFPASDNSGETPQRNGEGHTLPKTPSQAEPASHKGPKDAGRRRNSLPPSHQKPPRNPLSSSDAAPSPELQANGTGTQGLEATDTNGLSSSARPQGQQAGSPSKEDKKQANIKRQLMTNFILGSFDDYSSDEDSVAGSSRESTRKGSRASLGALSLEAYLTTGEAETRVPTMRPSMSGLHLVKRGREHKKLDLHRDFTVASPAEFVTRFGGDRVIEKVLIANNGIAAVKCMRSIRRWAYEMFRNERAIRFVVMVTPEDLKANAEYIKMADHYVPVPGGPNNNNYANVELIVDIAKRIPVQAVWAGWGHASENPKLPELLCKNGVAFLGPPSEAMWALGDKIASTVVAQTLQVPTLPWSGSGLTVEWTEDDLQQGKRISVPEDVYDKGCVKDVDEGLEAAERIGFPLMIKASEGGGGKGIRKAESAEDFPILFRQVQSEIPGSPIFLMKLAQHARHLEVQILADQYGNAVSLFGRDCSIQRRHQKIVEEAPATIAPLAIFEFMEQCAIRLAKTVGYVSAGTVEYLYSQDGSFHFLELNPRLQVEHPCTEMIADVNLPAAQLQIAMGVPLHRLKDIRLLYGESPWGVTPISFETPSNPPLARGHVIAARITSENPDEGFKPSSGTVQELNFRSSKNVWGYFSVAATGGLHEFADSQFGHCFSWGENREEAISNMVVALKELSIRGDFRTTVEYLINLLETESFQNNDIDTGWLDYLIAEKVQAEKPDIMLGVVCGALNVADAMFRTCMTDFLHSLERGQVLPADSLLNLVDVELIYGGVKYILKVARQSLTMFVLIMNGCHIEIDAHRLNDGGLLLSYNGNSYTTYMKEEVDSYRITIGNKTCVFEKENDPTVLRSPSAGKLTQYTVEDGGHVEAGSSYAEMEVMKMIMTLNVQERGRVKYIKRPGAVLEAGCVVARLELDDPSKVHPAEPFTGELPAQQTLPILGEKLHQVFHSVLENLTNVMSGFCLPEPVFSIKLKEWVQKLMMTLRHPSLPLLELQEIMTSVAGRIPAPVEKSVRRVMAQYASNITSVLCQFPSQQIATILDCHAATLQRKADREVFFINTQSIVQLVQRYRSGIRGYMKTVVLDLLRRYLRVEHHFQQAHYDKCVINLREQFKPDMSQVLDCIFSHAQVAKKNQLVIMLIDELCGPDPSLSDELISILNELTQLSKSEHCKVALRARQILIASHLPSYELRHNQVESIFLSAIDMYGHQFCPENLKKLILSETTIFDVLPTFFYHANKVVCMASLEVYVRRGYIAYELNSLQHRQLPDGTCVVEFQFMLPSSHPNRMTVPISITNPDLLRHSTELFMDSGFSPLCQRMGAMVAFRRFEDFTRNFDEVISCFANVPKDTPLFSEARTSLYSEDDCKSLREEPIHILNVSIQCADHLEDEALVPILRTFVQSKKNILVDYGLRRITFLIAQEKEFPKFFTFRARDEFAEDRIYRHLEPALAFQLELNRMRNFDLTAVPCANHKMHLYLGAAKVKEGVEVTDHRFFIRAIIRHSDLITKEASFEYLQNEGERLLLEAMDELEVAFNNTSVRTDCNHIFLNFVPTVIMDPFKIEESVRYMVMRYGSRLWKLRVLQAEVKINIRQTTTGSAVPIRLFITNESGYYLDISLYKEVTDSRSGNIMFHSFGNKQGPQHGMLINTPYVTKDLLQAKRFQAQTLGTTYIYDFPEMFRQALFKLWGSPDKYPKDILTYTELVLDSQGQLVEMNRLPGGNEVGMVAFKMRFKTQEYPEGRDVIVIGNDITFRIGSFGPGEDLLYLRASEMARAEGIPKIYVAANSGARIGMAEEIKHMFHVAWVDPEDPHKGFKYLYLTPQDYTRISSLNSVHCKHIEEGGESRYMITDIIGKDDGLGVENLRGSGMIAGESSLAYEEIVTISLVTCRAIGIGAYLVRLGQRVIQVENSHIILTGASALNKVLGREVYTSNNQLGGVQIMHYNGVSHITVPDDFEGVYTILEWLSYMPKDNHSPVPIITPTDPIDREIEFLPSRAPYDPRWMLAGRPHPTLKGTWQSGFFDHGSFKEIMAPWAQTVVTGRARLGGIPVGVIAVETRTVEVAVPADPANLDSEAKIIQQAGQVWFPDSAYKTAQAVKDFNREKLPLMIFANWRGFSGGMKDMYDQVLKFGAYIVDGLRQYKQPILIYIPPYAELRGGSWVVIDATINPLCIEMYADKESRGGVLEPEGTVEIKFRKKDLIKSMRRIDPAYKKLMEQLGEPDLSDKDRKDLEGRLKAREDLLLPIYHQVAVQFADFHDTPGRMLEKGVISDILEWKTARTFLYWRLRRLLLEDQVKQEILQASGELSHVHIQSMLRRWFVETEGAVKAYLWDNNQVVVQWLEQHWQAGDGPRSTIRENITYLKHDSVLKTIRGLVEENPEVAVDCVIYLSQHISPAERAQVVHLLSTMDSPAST
Data set [4] concerns the target Acetyl-CoA carboxylase 1 (Homo sapiens, UniProt Q13085). Description: Inhibition of recombinant human ACC1 assessed as reduction in conversion of acetyl-CoA to malonyl-CoA incubated for 1 to 3 hrs with substrate by MALDI-TOF-MS analysis.
Data set [5] deals with T1, Cytochrome P450 1A2 (Homo sapiens, UniProt P05177).
T1 sequence (P05177 whole entry): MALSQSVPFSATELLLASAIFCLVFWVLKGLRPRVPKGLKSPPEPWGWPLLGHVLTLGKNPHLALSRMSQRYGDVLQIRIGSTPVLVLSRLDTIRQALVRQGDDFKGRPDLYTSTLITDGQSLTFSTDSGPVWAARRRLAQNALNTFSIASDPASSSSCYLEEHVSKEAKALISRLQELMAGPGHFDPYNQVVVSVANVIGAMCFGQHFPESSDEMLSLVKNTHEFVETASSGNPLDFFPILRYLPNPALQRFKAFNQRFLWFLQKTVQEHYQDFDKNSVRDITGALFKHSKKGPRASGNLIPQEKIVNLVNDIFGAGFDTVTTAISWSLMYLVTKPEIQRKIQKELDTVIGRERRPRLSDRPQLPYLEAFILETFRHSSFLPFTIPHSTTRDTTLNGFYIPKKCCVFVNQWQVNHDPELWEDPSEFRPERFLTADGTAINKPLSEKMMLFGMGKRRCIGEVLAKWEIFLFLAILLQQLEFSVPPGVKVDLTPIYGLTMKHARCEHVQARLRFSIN
Description: Inhibition of CYP1A2 (unknown origin). Format: ADME.

The target of data set [6] is Cytochrome P450 2D6 (Homo sapiens, UniProt P10635). The data set can be described thus: Inhibition of CYP2D6 (unknown origin). It is filed as ADME.
Chain of Cytochrome P450 2D6 (P10635 whole entry): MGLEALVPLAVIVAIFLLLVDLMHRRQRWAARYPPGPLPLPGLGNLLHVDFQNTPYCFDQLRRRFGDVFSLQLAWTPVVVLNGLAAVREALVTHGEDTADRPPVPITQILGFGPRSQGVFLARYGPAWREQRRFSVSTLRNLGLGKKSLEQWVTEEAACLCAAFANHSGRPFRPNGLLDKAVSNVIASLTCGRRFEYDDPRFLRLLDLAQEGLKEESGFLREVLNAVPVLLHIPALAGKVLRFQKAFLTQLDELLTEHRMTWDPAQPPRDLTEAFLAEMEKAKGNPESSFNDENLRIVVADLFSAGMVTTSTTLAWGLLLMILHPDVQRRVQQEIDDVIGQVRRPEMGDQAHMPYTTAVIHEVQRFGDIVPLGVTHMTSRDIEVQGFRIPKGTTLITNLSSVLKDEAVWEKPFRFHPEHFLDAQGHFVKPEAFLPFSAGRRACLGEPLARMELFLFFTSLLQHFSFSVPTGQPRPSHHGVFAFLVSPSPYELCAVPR
Data set [7] has as its target Cytochrome P450 2C9 (Homo sapiens, UniProt P11712). The data set can be described thus: Inhibition of CYP2C9 (unknown origin). Format: ADME.
Data set [8] concerns the target Cytochrome P450 2C19 (Homo sapiens, UniProt P33261). Description: Inhibition of CYP2C19 (unknown origin). It is filed as ADME.
The nature of data set [9]: Metabolic stability in rat liver microsomes assessed as parent compound remaining after 30 mins. The following applies: read-out: Stability. It is filed as ADME, microsome. (Microsomes from liver hold many membrane-bound enzymes, among them those of drug oxidation.)
The nature of data set [10]: Metabolic stability in human liver microsomes assessed as parent compound remaining after 30 mins. Format: ADME, microsome. The following applies: read-out: Stability.

Chain of Cytochrome P450 2C9 (P11712 whole entry): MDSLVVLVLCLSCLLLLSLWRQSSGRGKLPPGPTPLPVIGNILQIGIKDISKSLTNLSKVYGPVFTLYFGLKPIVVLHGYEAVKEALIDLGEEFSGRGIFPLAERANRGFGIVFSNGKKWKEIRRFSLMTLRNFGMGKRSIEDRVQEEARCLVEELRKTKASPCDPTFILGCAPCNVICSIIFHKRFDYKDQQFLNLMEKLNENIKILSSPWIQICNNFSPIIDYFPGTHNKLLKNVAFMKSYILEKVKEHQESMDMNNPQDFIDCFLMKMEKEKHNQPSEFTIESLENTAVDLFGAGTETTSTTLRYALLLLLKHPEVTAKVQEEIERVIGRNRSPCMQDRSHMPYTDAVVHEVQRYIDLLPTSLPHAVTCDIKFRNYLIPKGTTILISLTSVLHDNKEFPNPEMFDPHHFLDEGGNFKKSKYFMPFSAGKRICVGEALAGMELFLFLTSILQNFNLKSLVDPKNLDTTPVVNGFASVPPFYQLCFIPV
Chain of Cytochrome P450 3A4 (P08684 whole entry): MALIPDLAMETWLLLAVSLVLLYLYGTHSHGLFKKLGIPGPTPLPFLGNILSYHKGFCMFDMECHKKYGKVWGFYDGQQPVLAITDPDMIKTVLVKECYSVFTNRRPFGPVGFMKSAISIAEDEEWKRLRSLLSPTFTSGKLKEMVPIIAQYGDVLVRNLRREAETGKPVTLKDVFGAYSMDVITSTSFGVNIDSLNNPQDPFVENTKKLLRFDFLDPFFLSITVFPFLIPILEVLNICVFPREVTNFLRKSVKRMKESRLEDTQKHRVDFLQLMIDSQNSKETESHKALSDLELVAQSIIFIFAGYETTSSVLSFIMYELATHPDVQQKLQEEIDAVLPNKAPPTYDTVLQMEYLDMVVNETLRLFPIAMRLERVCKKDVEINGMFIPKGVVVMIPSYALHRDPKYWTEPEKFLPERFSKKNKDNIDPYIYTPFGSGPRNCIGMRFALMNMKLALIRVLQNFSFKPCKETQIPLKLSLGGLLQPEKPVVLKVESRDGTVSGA
Chain of Cytochrome P450 2C19 (P33261 whole entry): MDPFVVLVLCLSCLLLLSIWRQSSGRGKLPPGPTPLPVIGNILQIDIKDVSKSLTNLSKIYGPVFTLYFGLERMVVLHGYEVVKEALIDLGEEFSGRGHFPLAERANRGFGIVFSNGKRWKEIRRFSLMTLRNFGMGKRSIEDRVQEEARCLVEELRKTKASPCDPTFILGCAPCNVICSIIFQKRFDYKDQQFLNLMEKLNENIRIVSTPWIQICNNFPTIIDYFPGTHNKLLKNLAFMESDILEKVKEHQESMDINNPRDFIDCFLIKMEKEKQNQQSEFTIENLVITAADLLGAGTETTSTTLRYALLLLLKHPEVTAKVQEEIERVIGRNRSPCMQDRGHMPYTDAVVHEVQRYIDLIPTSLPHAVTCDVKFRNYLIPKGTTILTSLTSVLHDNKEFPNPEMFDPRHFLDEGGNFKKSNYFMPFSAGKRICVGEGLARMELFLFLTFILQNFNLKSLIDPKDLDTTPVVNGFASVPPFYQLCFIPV

For `CC(=O)N[C@@H](C)/C=C/c1ccc(Oc2ccc(OCC(F)F)cc2Cl)nc1`, the IC50 in data set [1] is above 20 µM; in data set [3], 0.084 µM; in [4], above 100 µM; in data set [5] it was above 20 µM; in data set [6], above 20 µM; in data set [7], above 20 µM. In addition, in data set [8], the half-inhibitory concentration (IC50) was above 20 µM. For the same compound, the Ratio IC50 in [2] is above 1190.

Turning to `CC(=O)N[C@@H](C)/C=C/c1ccc(Oc2ccc3nc(C(C)C)sc3c2C(F)(F)F)nc1`, the IC50 in data set [1] is 17 µM; in [3] it was 0.059 µM; in data set [4], 7.45 µM; in data set [5], above 20 µM; in data set [6], above 20 µM; in data set [7], 14 µM. This compound gave an IC50 in data set [8] of 18 µM. The Ratio IC50 in data set [2] came out at 126. In addition, the remaining at 0.5 h is 83% in data set [9] and 87% in data set [10].

Consider `CC(=O)N[C@@H](C)/C=C/c1cnc(Oc2ccc(OCC3CC3)cc2Cl)cn1`, for which the IC50 in data set [1] was above 20 µM; in data set [3] it was 0.025 µM; in data set [4], 0.75 µM; in [5] it was above 20 µM; in [6], above 20 µM; in data set [7], above 20 µM. The compound further returned a concentration for half-maximal inhibition (IC50) in data set [8] above 20 µM. For the same compound, the Ratio IC50 in data set [2] was 30.

As to `CC(=O)N[C@@H](C)/C=C/c1cnc(Oc2ccc(OCC3CC3)cc2Cl)n1C`, the IC50 is above 20 µM in data set [1]; 37.2 µM in data set [4]; above 20 µM in data set [5]; above 20 µM in data set [6]; 10 µM in data set [7]; above 20 µM in [8]. Further, the Ratio IC50 in [2] was 82.

For `CC(=O)N[C@@H](C)/C=C/c1ccc(Oc2ccc3sc(C(C)C)nc3c2Cl)nc1`, the IC50 was above 20 µM in data set [1]; 0.04 µM in data set [3]; 0.858 µM in [4]; above 20 µM in [5]; above 20 µM in data set [6]; 14 µM in [7]. In data set [8], this compound gave a half-inhibitory concentration (IC50) of 11 µM. Besides, the Ratio IC50 in data set [2] was 21. Besides, the remaining at 0.5 h in data set [9] was 77%; in data set [10], 88%.

`CC(=O)N[C@@H](C)/C=C/c1cnc(Oc2ccc(OC(C)C)cc2)s1`: the IC50 is above 20 µM in data set [1]; 0.066 µM in [3]; 53.4 µM in [4]; above 20 µM in data set [5]; above 20 µM in [6]; 4.4 µM in [7]. This compound also registered a half-inhibitory concentration (IC50) in data set [8] above 20 µM. In addition, the Ratio IC50 in data set [2] stood at 809.

For `CC(=O)N[C@@H](C)/C=C/c1ccc(Oc2ccc(OCCF)cc2Cl)nc1`, the half-maximal inhibitory concentration (IC50) was above 20 µM in [1]; 0.186 µM in data set [3]; above 100 µM in data set [4]; above 20 µM in data set [5]; above 20 µM in data set [6]; above 20 µM in data set [7]. The same compound returned an IC50 in data set [8] above 20 µM. The Ratio IC50 in [2] is above 537.

As for `CCOc1ccc(Oc2ccc(/C=C/[C@H](C)NC(C)=O)cn2)c(Cl)c1`, the half-maximal inhibitory concentration (IC50) in data set [1] was above 20 µM; in data set [3], 0.046 µM; in data set [4], above 100 µM; in data set [5] it was above 20 µM; in data set [6], above 20 µM; in [7] it was above 20 µM. In addition, the half-inhibitory concentration (IC50) in data set [8] is above 20 µM. For the same compound, the Ratio IC50 in data set [2] is above 2170.

As for `CC(=O)N[C@@H](C)/C=C/c1nnc(Oc2ccc(OCC3CC3)cc2Cl)s1`, the IC50 in data set [1] was above 20 µM; in [3] it was 0.253 µM; in data set [4], above 100 µM; in [5], above 20 µM; in data set [6], above 20 µM; in data set [7], 15 µM. The compound further returned an IC50 in [8] above 20 µM. Also, in data set [2], the Ratio IC50 was above 395.

`CC(=O)N[C@@H](C)/C=C/c1ccc(Oc2ccc3nc(C(C)C)sc3c2F)nc1`: the half-inhibitory concentration (IC50) in data set [1] is above 20 µM; in data set [3] it was 0.0021 µM; in data set [4], 0.035 µM; in [5] it was above 20 µM; in data set [6], above 20 µM; in data set [7], above 20 µM. The half-inhibitory concentration (IC50) in data set [8] was above 20 µM. Besides, the Ratio IC50 in [2] turned out to be 17. In addition, the figures for the remaining at 0.5 h in [9] and in [10] were 51% and 84%, respectively.

`CC(=O)N[C@@H](C)/C=C/c1cnc(Oc2ccc(OCC3CC3)cc2Cl)s1`: the concentration for half-maximal inhibition (IC50) was above 20 µM in data set [1]; 0.013 µM in data set [3]; 1.27 µM in data set [4]; above 20 µM in data set [5]; above 20 µM in data set [6]; 3.5 µM in [7]. The same compound yielded an IC50 in data set [8] of 14 µM. The Ratio IC50 in data set [2] is 98.

For `CCOc1ccc(Oc2ncc(/C=C/[C@H](C)NC(C)=O)s2)cc1`, the half-inhibitory concentration (IC50) is above 20 µM in data set [1]; 0.079 µM in data set [3]; above 100 µM in data set [4]; above 20 µM in data set [5]; above 20 µM in data set [6]; 8.6 µM in data set [7]. The same compound displayed a half-inhibitory concentration (IC50) in data set [8] above 20 µM. Besides, the Ratio IC50 in data set [2] was above 1270.

As for `CC(=O)N[C@@H](C)/C=C/c1ccc(Oc2cc3sc(C)nc3cc2Cl)nc1`, the half-maximal inhibitory concentration (IC50) was above 20 µM in data set [1]; 0.473 µM in data set [3]; 52.1 µM in data set [4]; above 20 µM in [5]; above 20 µM in [6]; above 20 µM in [7]. This compound also displayed an IC50 in data set [8] above 20 µM. In addition, the Ratio IC50 in [2] was 110. For the same compound, the figures for the remaining at 0.5 h in [9] and in data set [10] were 83% and 94%, respectively.

Take `CC(=O)N[C@@H](C)/C=C/c1ccc(Oc2ccc(OCC3CC3)cc2Cl)nc1`: the half-maximal inhibitory concentration (IC50) was 16 µM in [1]; 0.964 µM in data set [4]; above 20 µM in [5]; above 20 µM in data set [6]; 9.5 µM in [7]; above 20 µM in data set [8]. For the same compound, the Ratio IC50 in data set [2] was 140.

Consider `COC(=O)N[C@@H](C)/C=C/c1cnc(Oc2ccc(OC(C)C)cc2)s1`, for which the IC50 in [1] was above 20 µM; in data set [3], 0.076 µM; in [4] it was above 100 µM; in data set [5] it was above 20 µM; in data set [6], above 20 µM; in data set [7], 2.7 µM. Further, the concentration for half-maximal inhibition (IC50) in data set [8] was 6.5 µM. Further, in data set [2], the Ratio IC50 was above 1320.

Consider `CC(=O)N[C@@H](C)/C=C/c1cnc(Oc2ccc(OCC3CC3)cc2Cl)nc1`, for which the IC50 in data set [1] was above 20 µM; in data set [3], 0.048 µM; in data set [4] it was above 100 µM; in [5], above 20 µM; in [6], above 20 µM; in data set [7] it was above 20 µM. The IC50 in data set [8] was above 20 µM. The Ratio IC50 in [2] is above 2080.

Take `CC(=O)N[C@@H](C)/C=C/c1cnc(Oc2ccc(OCC3CC3)cc2)s1`: the concentration for half-maximal inhibition (IC50) in data set [1] is above 20 µM; in data set [3], 0.031 µM; in data set [4], 1.94 µM; in data set [5], above 20 µM; in data set [6], above 20 µM; in [7], 8.2 µM. The same compound gave a concentration for half-maximal inhibition (IC50) in [8] of 18 µM. The Ratio IC50 in data set [2] stood at 63.

`CC(=O)N[C@@H](C)/C=C/c1ccc(Oc2ccc(OCC3CC3)cc2Cl)nn1`: the IC50 in data set [1] was 18 µM; in data set [3], 0.306 µM; in data set [4], above 100 µM; in [5], above 20 µM; in [6], above 20 µM; in data set [7], above 20 µM. This compound returned an IC50 in data set [8] above 20 µM. Also, in [2], the Ratio IC50 is above 327.
